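Exposure lasted 48 hours, with cells grown in 96-well plates and compounds tested at five concentrations. Here, GI50 denotes the concentration required for 50% inhibition of growth.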 Activity calls are given as the source filed them. Cut-off read from the data, not from the text of the source: active = GI50 up to about 1.1 µM and inactive = higher.
Assays:
Assay in all cases: NCI anticancer screen, dose series, 48 h
SN12C = tested on: SN12C
A498 = tested on: A498
CAKI-1 = tested on: CAKI-1
OVCAR-8 = tested on: OVCAR-8
HCC 2998 = tested on: HCC 2998
RPMI-8226 = tested on: RPMI-8226
NCI-H522 = tested on: NCI-H522
SF-295 = tested on: SF-295
RXF 393 = tested on: RXF 393
DU-145 = tested on: DU-145
KM12 = tested on: KM12
A549 = tested on: A549
UO-31 = tested on: UO-31
Malme-3M = tested on: Malme-3M
NCI/ADR-RES = tested on: NCI/ADR-RES
OVCAR-5 = tested on: OVCAR-5
UACC-62 = tested on: UACC-62
UACC-257 = tested on: UACC-257
MCF7 = tested on: MCF7
COLO 205 = tested on: COLO 205

Measured: GI50

CCO/C=N/C1=C(C#N)SC2=N/C(=C\c3ccccc3)C(=O)N21
inactive: SN12C > 100 µM | A498 > 85.1 µM | CAKI-1 > 100 µM | OVCAR-8 > 100 µM | HCC 2998 > 100 µM | RPMI-8226 > 58.1 µM | NCI-H522 > 100 µM | SF-295 > 100 µM | RXF 393 > 100 µM | DU-145 > 100 µM | KM12 > 100 µM | A549 > 100 µM | UO-31 > 100 µM | Malme-3M > 100 µM | NCI/ADR-RES > 100 µM | OVCAR-5 > 100 µM | UACC-62 > 100 µM | UACC-257 > 100 µM | MCF7 > 100 µM | COLO 205 > 100 µM

CCN(CC)CCC(=O)c1ccc(Sc2ccc(F)cc2)cc1
inactive: SN12C 21.7 µM | A498 26.4 µM | CAKI-1 16 µM | OVCAR-8 19.4 µM | HCC 2998 32.6 µM | RPMI-8226 2.44 µM | NCI-H522 16.1 µM | SF-295 19.3 µM | RXF 393 17 µM | DU-145 18.9 µM | KM12 15.7 µM | A549 > 100 µM | UO-31 17.8 µM | Malme-3M 16 µM | NCI/ADR-RES 24.3 µM | OVCAR-5 19.7 µM | UACC-62 16.2 µM | UACC-257 15.7 µM | MCF7 14.7 µM | COLO 205 21.1 µM

COc1ccc(N/N=C2\C3=C(CCC(C)(C)O3)C(=O)c3ccccc32)cc1
inactive: SN12C 17.9 µM | A498 15 µM | CAKI-1 20 µM | OVCAR-8 26.5 µM | HCC 2998 12.1 µM | RPMI-8226 16.8 µM | NCI-H522 17 µM | SF-295 14.8 µM | RXF 393 12.4 µM | DU-145 25.2 µM | KM12 13.4 µM | A549 16.6 µM | UO-31 18.1 µM | Malme-3M 20.9 µM | NCI/ADR-RES 19.6 µM | OVCAR-5 19.4 µM | UACC-62 14.5 µM | UACC-257 19.7 µM | MCF7 12.4 µM | COLO 205 22.9 µM

Brc1ccccc2cc(-c3ccccc3)nc1-2
inactive: SN12C 1.87 µM | A498 14 µM | CAKI-1 5.05 µM | OVCAR-8 2.27 µM | HCC 2998 1.93 µM | RPMI-8226 2.44 µM | NCI-H522 2.86 µM | SF-295 15.6 µM | RXF 393 2.09 µM | DU-145 11.9 µM | KM12 5.97 µM | A549 14.7 µM | UO-31 5.37 µM | Malme-3M 3.01 µM | NCI/ADR-RES 3.58 µM | OVCAR-5 7.43 µM | UACC-62 2.53 µM | UACC-257 5.06 µM | MCF7 8.79 µM | COLO 205 2.14 µM

Clc1ccc(Nc2nnc(CNc3ccc(-c4nnc(Nc5ccc(Cl)cc5)o4)cc3)o2)cc1
inactive: SN12C 16 µM | A498 14.9 µM | CAKI-1 17.9 µM | OVCAR-8 8.87 µM | HCC 2998 5.14 µM | RPMI-8226 9.42 µM | NCI-H522 16 µM | SF-295 19.9 µM | RXF 393 18.5 µM | DU-145 12.7 µM | KM12 8.36 µM | A549 13.6 µM | UO-31 14.5 µM | Malme-3M 14.7 µM | NCI/ADR-RES 29.7 µM | OVCAR-5 19.6 µM | UACC-62 13.6 µM | UACC-257 20.3 µM | MCF7 10.9 µM | COLO 205 19.8 µM

CC1(C)CC(Nc2ccc(Nc3ccccc3)cc2)CC(C)(C)N1
inactive: SN12C 48.6 µM | A498 28.2 µM | CAKI-1 22.9 µM | OVCAR-8 30.1 µM | HCC 2998 15.7 µM | RPMI-8226 12.7 µM | NCI-H522 10.1 µM | SF-295 68.2 µM | RXF 393 18 µM | DU-145 23 µM | KM12 44.1 µM | A549 45.9 µM | UO-31 9.48 µM | Malme-3M 17.9 µM | NCI/ADR-RES 21.9 µM | OVCAR-5 36.2 µM | UACC-62 16.1 µM | UACC-257 14.7 µM | MCF7 16.7 µM | COLO 205 16.8 µM

CC(=O)OC1CN2CCC1CC2 (stereo not given) [ACECLIDINE]
inactive: SN12C > 100 µM | A498 3.45 µM | CAKI-1 > 100 µM | OVCAR-8 > 100 µM | HCC 2998 > 100 µM | RPMI-8226 > 100 µM | NCI-H522 > 100 µM | SF-295 > 100 µM | RXF 393 > 100 µM | DU-145 > 100 µM | KM12 > 100 µM | A549 > 100 µM | UO-31 > 100 µM | Malme-3M > 100 µM | NCI/ADR-RES > 100 µM | OVCAR-5 > 100 µM | UACC-62 > 100 µM | UACC-257 > 100 µM | MCF7 > 100 µM | COLO 205 > 100 µM

Source: ChEMBL document CHEMBL1201862, “PubChem BioAssay data set” (2004)
